In this data set the test system is CCRIS mutagenicity, Ames/micronucleus/aberration tests. Description: CCRIS mutagenicity studies.
Setting [1] is: Test System: AMES SALMONELLA TYPHIMURIUM, Strain/Indicator: TA100, Metabolic Activation: NONE, Method: STANDARD PLATE.

Calls of active or inactive are those of the source. No rule for the calls is given here.

For the molecule `CNC(=O)CN(CCN(CCN(CC(=O)O)CC(=O)NC)CC(=O)O)CC(=O)O`, the mutagenic call is “inactive; negative” (Test System: AMES SALMONELLA TYPHIMURIUM, Strain/Indicator: TA98, Metabolic Activation: NONE); “inactive; negative” (Test System: AMES SALMONELLA TYPHIMURIUM, Strain/Indicator: TA98, Metabolic Activation: RAT, LIVER, S-9, AROCLOR 1254); “inactive; negative” (Test System: AMES SALMONELLA TYPHIMURIUM, Strain/Indicator: TA100, Metabolic Activation: NONE); “inactive; negative” (Test System: AMES SALMONELLA TYPHIMURIUM, Strain/Indicator: TA100, Metabolic Activation: RAT, LIVER, S-9, AROCLOR 1254); “inactive; negative” (Test System: AMES SALMONELLA TYPHIMURIUM, Strain/Indicator: TA1535, Metabolic Activation: NONE); “inactive; negative” (Test System: AMES SALMONELLA TYPHIMURIUM, Strain/Indicator: TA1535, Metabolic Activation: RAT, LIVER, S-9, AROCLOR 1254). Also, the mutagenic call (Test System: AMES SALMONELLA TYPHIMURIUM, Strain/Indicator: TA1537, Metabolic Activation: NONE) is “inactive; negative”; the mutagenic call (Test System: AMES SALMONELLA TYPHIMURIUM, Strain/Indicator: TA1537, Metabolic Activation: RAT, LIVER, S-9, AROCLOR 1254) is “inactive; negative”; the mutagenic call (Test System: CHINESE HAMSTER OVARY, Strain/Indicator: CHO-K1-BH4 (HGPRT)/6-THIOGUANINE, Metabolic Activation: NONE) is “inactive; negative”; the mutagenic call (Test System: CHINESE HAMSTER OVARY, Strain/Indicator: CHO-K1-BH4 (HGPRT)/6-THIOGUANINE, Metabolic Activation: RAT, LIVER, S-9, AROCLOR 1254) is “inactive; negative”; the mutagenic call (Test System: E.COLI, Strain/Indicator: WP2 UVRA, Metabolic Activation: NONE) was “inactive; negative”; the mutagenic call (Test System: E.COLI, Strain/Indicator: WP2 UVRA, Metabolic Activation: RAT, LIVER, S-9, AROCLOR 1254) was “inactive; negative”.

Consider `CN(C)c1ccc(C(c2ccccc2)c2ccc(N(C)C)cc2)cc1`, for which the mutagenic call is, setting by setting: (End Point: IN VIVO MICRONUCLEUS, Test System: PERIPHERAL BLOOD ERYTHROCYTES, Species: MOUSE, Strain/Sex: BIG BLUE B6C3F1/FEMALE, Route: DIET) “inactive; negative”; (Test System: AMES SALMONELLA TYPHIMURIUM, Strain/Indicator: TA97A, Metabolic Activation: NONE, Method: STANDARD PLATE) “inactive; negative”; (Test System: AMES SALMONELLA TYPHIMURIUM, Strain/Indicator: TA97A, Metabolic Activation: RAT LIVER S-9, 3-METHYLCHOLANTHRENE, PHENOBARBITAL, Method: STANDARD PLATE) “inactive; negative”; (Test System: AMES SALMONELLA TYPHIMURIUM, Strain/Indicator: TA98, Metabolic Activation: NONE, Method: STANDARD PLATE) “inactive; negative”; (Test System: AMES SALMONELLA TYPHIMURIUM, Strain/Indicator: TA98, Metabolic Activation: RAT LIVER S-9, 3-METHYLCHOLANTHRENE, PHENOBARBITAL, Method: STANDARD PLATE) “inactive; negative”; under setting [1], “inactive; negative”. The mutagenic call was “inactive; negative” (Test System: AMES SALMONELLA TYPHIMURIUM, Strain/Indicator: TA100, Metabolic Activation: RAT LIVER S-9, 3-METHYLCHOLANTHRENE, PHENOBARBITAL, Method: STANDARD PLATE); “inactive; negative” (Test System: AMES SALMONELLA TYPHIMURIUM, Strain/Indicator: TA102, Metabolic Activation: NONE, Method: STANDARD PLATE); “inactive; negative” (Test System: AMES SALMONELLA TYPHIMURIUM, Strain/Indicator: TA102, Metabolic Activation: RAT LIVER S-9, 3-METHYLCHOLANTHRENE, PHENOBARBITAL, Method: STANDARD PLATE); “inactive; negative” (Test System: CHO/HGPRT, Strain/Indicator: CHO-K1, Metabolic Activation: NONE, Method: STANDARD PLATE); “inactive; negative” (Test System: CHO/HGPRT, Strain/Indicator: CHO-K1, Metabolic Activation: RAT LIVER S-9, 3-METHYLCHOLANTHRENE, PHENOBARBITAL, Method: STANDARD PLATE).

On to `COc1ccc2c(c1)C(=O)c1c(OC)c(OC)cc3ccnc-2c13`, for which the mutagenic call was “active; positive” (Test System: AMES SALMONELLA TYPHIMURIUM, Strain/Indicator: TA98, Metabolic Activation: RAT, LIVER, S-9, PHENOBARBITAL AND BETA-NAPHTHOFLAVONE, Method: PREINCUBATION) and “active; positive” (Test System: AMES SALMONELLA TYPHIMURIUM, Strain/Indicator: TA100, Metabolic Activation: RAT, LIVER, S-9, PHENOBARBITAL AND BETA-NAPHTHOFLAVONE, Method: PREINCUBATION).

Consider `O=C1OCC(C(Br)Br)=C1Cl`, for which the mutagenic call under setting [1] was “active; positive”.

As for `O.O=C([O-])c1ccccn1.O=C([O-])c1ccccn1.O=C([O-])c1ccccn1.[Cr+3]`, the mutagenic call (End Point: In vivo micronucleus, Test System: Peripheral blood normochromatic erythrocytes, Species: Mouse, Strain/Sex: B6C3F1/Female, Route: Oral) is “inactive; negative”; the mutagenic call (End Point: In vivo micronucleus, Test System: Peripheral blood normochromatic erythrocytes, Species: Mouse, Strain/Sex: B6C3F1/Male, Route: Oral) was “inactive; negative”; the mutagenic call (Test System: Ames Salmonella typhimurium, Strain/Indicator: TA98, Metabolic Activation: None, Method: Preincubation) was “inactive; negative”; the mutagenic call (Test System: Ames Salmonella typhimurium, Strain/Indicator: TA98, Metabolic Activation: Rat, Liver, S-9, Aroclor 1254 (10%), Method: Preincubation) is “inactive; negative”; the mutagenic call (Test System: Ames Salmonella typhimurium, Strain/Indicator: TA98, Metabolic Activation: Rat, Liver, S-9, Phenobarbital and 5,6-benzoflavone, Method: Preincubation) is “inactive; negative”; the mutagenic call (Test System: Ames Salmonella typhimurium, Strain/Indicator: TA100, Metabolic Activation: None, Method: Preincubation) is “inactive; negative”. Further, the mutagenic call is, setting by setting: (Test System: Ames Salmonella typhimurium, Strain/Indicator: TA100, Metabolic Activation: Rat, Liver, S-9, Aroclor 1254 (10%), Method: Preincubation) “inactive; negative”; (Test System: Ames Salmonella typhimurium, Strain/Indicator: TA100, Metabolic Activation: Rat, Liver, S-9, Phenobarbital and 5,6-benzoflavone, Method: Preincubation) “inactive; negative”; (Test System: Ames Salmonella typhimurium, Strain/Indicator: TA1535, Metabolic Activation: None, Method: Preincubation) “inactive; negative”; (Test System: Ames Salmonella typhimurium, Strain/Indicator: TA1535, Metabolic Activation: Rat, Liver, S-9, Phenobarbital and 5,6-benzoflavone, Method: Preincubation) “inactive; negative”; (Test System: Ames Salmonella typhimurium, Strain/Indicator: TA1537, Metabolic Activation: None, Method: Preincubation) “inactive; negative”; (Test System: Ames Salmonella typhimurium, Strain/Indicator: TA1537, Metabolic Activation: Rat, Liver, S-9, Phenobarbital and 5,6-benzoflavone, Method: Preincubation) “inactive; negative”. Further, the mutagenic call reads like this: (Test System: E. coli, Strain/Indicator: WP2 uvrA/pKM101, Metabolic Activation: None, Method: Preincubation) “inactive; negative”; (Test System: E. coli, Strain/Indicator: WP2uvrA/pKM101, Metabolic Activation: None, Method: Preincubation) “inactive; negative”; (Test System: E. coli, Strain/Indicator: WP2 uvrA/pKM101, Metabolic Activation: Rat, Liver, S-9, Aroclor 1254 (10%), Method: Preincubation) “inactive; negative”; (Test System: E. coli, Strain/Indicator: WP2uvrA/pKM101, Metabolic Activation: Rat, Liver, S-9, Phenobarbital and 5,6-benzoflavone, Method: Preincubation) “inactive; negative”.
